Patent US20260356817A1, “AMINOPYRIMIDINE AND AMINOTRIAZINE DERIVATIVES AS MYC PROTEIN MODULATORS” (Sanford Burnham Prebys Medical Discovery Institute, priority 2022, published 2026)
Like-named read-outs stand apart in the source and are kept apart here.

Assays:
[1] = test system: Myc; experiment: Myc inhibition assay: Myc expression per cell by anti-Myc immunofluorescence, high-content imaging; format: cell-based, human (patient-derived medulloblastoma xenograft cells)
Outline: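 Cells from Myc-driven medulloblastoma patient-derived orthotopic xenografts, propagated only in NSG mouse cerebellum, were dissociated and plated in serum-free medium. After overnight recovery, compounds were applied for 4 hours; cells were then fixed, stained for Myc and DAPI, and per-cell Myc quantified by high-content imaging to derive IC50.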

[2] = test system: retinoblastoma (Rb) protein; experiment: Rb protein expression in PDX511 medulloblastoma cells (immunofluorescence); format: cell-based, human (patient-derived)
[3] = test system: PDX511 medulloblastoma cells; experiment: Cell viability of PDX511 medulloblastoma cells at 4 hours; format: cell-based, human (patient-derived)
[4] = test system: Myc; experiment: Myc levels in intracranial medulloblastoma PDX tumors in mice after oral administration (Western blot); format: in vivo, NSG mice transplanted with medulloblastoma PDX cells
Procedure: NSG mice transplanted with medulloblastoma PDX cells were treated by oral administration with either vehicle (10% DMSO, 10% Tween 80) or Compound 171 (100 mg/kg). After 5.5 hours, animals were sacrificed, and tumors were harvested, dissociated, lysed and subjected to Western blotting with antibodies specific for Myc or GAPDH as control.

[5] = test system: Myc; experiment: Western blot of Myc in cultured medulloblastoma PDX cells; format: cell-based, human (patient-derived); conditions: 0.18 μM, Western blot (FIG. 4A)
Procedure: (§1) Medulloblastoma PDX cells were harvested from the brains of tumor-bearing mice, cultured overnight, and then treated with Compound 171 for various amounts of time. Cells cultured for time points of 1 hour, 2 hours, and 4 hours were lysed and subjected to Western blotting with antibodies specific for Myc or GAPDH as control, as shown in FIG. 4A. Cells cultured for longer time points of 48 hours and 96 hours were assayed for viability using the CellTiter Glo assay, as shown in FIG. 4B and FIG. 4C.

[6] = Plasma and brain concentrations in NSG mice after oral administration (LCMS); format: in vivo, mice (non-tumor-bearing NSG); conditions: 100 mg/kg oral
Procedure: Non-tumor-bearing NOD-SCID-IL2Rgamma knockout (NSG) mice were treated with Compound 171 at 100 mg/kg via oral administration. Blood was collected retro-orbitally or by cardiac puncture for measuring compound concentrations. For measurements of compound concentration in the brain, animals were sacrificed, and brain tissue was harvested and homogenized. Compound concentration was determined by liquid chromatography-mass spectrometry (LCMS).

[7] = test system: medulloblastoma PDX cells; experiment: CellTiter Glo viability of medulloblastoma PDX cells; format: cell-based, human (patient-derived); conditions: 0.18 μM
Procedure: as §1

[8] = test system: Myc; experiment: Western blot of Myc in H-82 cells (small cell lung cancer); format: cell-based; conditions: 0.18 μM and 1.0 μM, 4 hours, Western blot (FIG. 5D)
Procedure: (§2) Cell lines derived from acute monocytic leukemia, acute promyelocytic leukemia, pancreatic adenocarcinoma and small cell lung cancer were treated with vehicle (DMSO) or the indicated concentrations of Compound 171 for 4 hours, and then lysed and subjected to Western blotting using antibodies specific for Myc or GAPDH as control.

[9] = test system: Myc; experiment: Western blot of Myc in HL-60 cells (acute promyelocytic leukemia); format: cell-based; conditions: 0.18 μM and 1.0 μM, 4 hours, Western blot (FIG. 5B)
Procedure: as §2

[10] = test system: Myc; experiment: Western blot of Myc in BxPC-3 cells (pancreatic adenocarcinoma); format: cell-based; conditions: 0.18 μM and 1.0 μM, 4 hours, Western blot (FIG. 5C)
Procedure: as §2

[11] = test system: Myc; experiment: Western blot of Myc in THP-1 cells (acute monocytic leukemia); format: cell-based; conditions: 0.18 μM and 1.0 μM, 4 hours, Western blot (FIG. 5A)
Procedure: as §2

[12] = Table 1, medulloblastoma PDX cells, 4 h, read-out: IC50 (Myc inhibition)
[13] = Table 2, medulloblastoma PDX cells, 4 h, read-out: MYC Inhibition IC50

Row | Structure (SMILES) | IC50 [1, 12] [nM] | IC50 [1, 13] [nM] | other results
1 | COc1ccc(Nc2nccc(-c3ccncc3)n2)cc1 [Compound A] | – | – | IC50 ([1]; read-out: Myc expression inhibition IC50, PDX511 medulloblastoma cells, 4 h (FIG. 2A)): 11700 nM; effect on expression of the retinoblastoma (Rb) protein [2]: no effect; effect on cell viability [3]: no effect
2 | FC(F)(F)c1cccc(Nc2nccc(-c3ccc4nc[nH]c4c3)n2)c1 [Compound 171, 4-(1H-Benzo[d]imidazol-6-yl)-N-(3-(trifluoromethyl)phenyl)pyrimidin-2-amine 2HCl] | < 200 | < 200 | reduction of Myc levels in intracranial tumors ([4]; 100 mg/kg oral (FIG. 7)): reduction of Myc levels; mice with undetectable Myc expression in intracranial tumors ([4]; 100 mg/kg oral, after more than 5 hours (5.5 hours), Western blot): 3 out of 6; inhibition of Myc expression at 2 and 4 hours ([5]; 2 and 4 hours vs 1 hour): greater inhibition; time of first inhibition of Myc expression [5]: ≤ 1 h; Myc expression inhibition (in words) ([1]; PDX511 medulloblastoma cells (FIG. 3A)): Myc expression inhibition; blood-brain-barrier crossing and retention in the brain [6]: ability to cross the blood-brain-barrier with good retention in the brain; time for which brain concentration remained above the IC90 level ([6]; brain): more than 6 hours; time for which plasma concentration remained above the IC90 level ([6]; plasma): more than 6 hours; effect on expression of the retinoblastoma (Rb) protein [2]: no effect; reduction in cell viability by 48 hours ([7]; 48 hours, CellTiter Glo (FIG. 4B)): 80%; reduction in cell viability by 96 hours ([7]; 96 hours, CellTiter Glo (FIG. 4C)): 100%; inhibition of Myc, H-82 [8]: substantial inhibition of Myc; inhibition of Myc, HL-60 [9]: substantial inhibition of Myc; inhibition of Myc, BxPC-3 [10]: substantial inhibition of Myc; effect on cell viability [3]: no effect; inhibition of Myc, THP-1 [11]: substantial inhibition of Myc
3 | c1cc(Nc2nccc(-c3ccc4[nH]cnc4c3)n2)cc(N2CCNCC2)c1 [Compound 92, 4-(1H-benzo[d]imidazol-5-yl)-N-(3-(piperazin-1-yl)phenyl)pyrimidin-2-amine] | 1000 to 10000 | 1000 to 10000 | –
4 | Fc1cccc(Nc2nccc(-c3cnc4nc[nH]c4c3)n2)c1 [Compound 151, N-(3-fluorophenyl)-4-(1H-imidazo[4,5-b]pyridin-6-yl)pyrimidin-2-amine] | < 200 | < 200 | –
5 | c1cncc(-c2cccc(Nc3nccc(-c4ccc5[nH]cnc5c4)n3)c2)c1 [Compound 45, 4-(1H-benzo[d]imidazol-5-yl)-N-(3-(pyridin-3-yl)phenyl)pyrimidin-2-amine] | < 200 | < 200 | –
6 | COc1cc(-c2ccnc(Nc3ccccc3)n2)ccn1 [Compound 252, 4-(2-methoxypyridin-4-yl)-N-phenylpyrimidin-2-amine] | 10000 to 100000 | 10000 to 100000 | –
7 | Oc1cc(-c2ccnc(Nc3ccccc3F)n2)ccn1 [Compound 207, 4-(2-((2-fluorophenyl)amino)pyrimidin-4-yl)pyridin-2-ol] | 10000 to 100000 | 10000 to 100000 | –
8 | CC(C)c1cccc(Nc2nccc(-c3cnc4nc[nH]c4c3)n2)c1 [Compound 134, 4-(1H-imidazo[4,5-b]pyridin-6-yl)-N-(3-isopropylphenyl)pyrimidin-2-amine] | < 200 | < 200 | –
9 | O=S(=O)(Nc1cccc(Nc2nccc(-c3ccc4[nH]cnc4c3)n2)c1)c1ccccc1 [Compound 38, N-(3-((4-(1H-benzo[d]imidazol-5-yl)pyrimidin-2-yl)amino)phenyl)benzenesulfonamide] | 200 to 1000 | 200 to 1000 | –
10 | COc1ccc(-c2ccnc(Nc3cccc(F)c3)n2)cn1 [Compound 214, N-(3-fluorophenyl)-4-(6-methoxypyridin-3-yl)pyrimidin-2-amine] | 10000 to 100000 | 10000 to 100000 | –
11 | Cc1cc(F)cc(Nc2nccc(-c3ccc4[nH]cnc4c3)n2)c1 [Compound 13, 4-(1H-benzo[d]imidazol-5-yl)-N-(3-fluoro-5-methylphenyl)pyrimidin-2-amine] | < 200 | < 200 | –
12 | FC(F)(F)c1cccc(Nc2ncnc(-c3cnc4nc[nH]c4c3)n2)c1 [Compound 105, 4-(1H-Imidazo[4,5-b]pyridin-6-yl)-N-(3-(trifluoromethyl)phenyl)-1,3,5-triazin-2-amine] | < 200 | < 200 | –
13 | O=c1[nH]c2ccc(-c3ccnc(Nc4cccc(F)c4)n3)cc2[nH]1 [Compound 117, 5-(2-((3-fluorophenyl)amino)pyrimidin-4-yl)-1,3-dihydro-2H-benzo[d]imidazol-2-one] | 10000 to 100000 | 10000 to 100000 | –
14 | c1cc(-c2ccc3[nH]cnc3c2)nc(Nc2ccc3sccc3c2)n1 [Compound 269, N-(benzo[b]thiophen-5-yl)-4-(1H-benzo[d]imidazol-5-yl)pyrimidin-2-amine] | 200 to 1000 | 200 to 1000 | –
15 | Clc1ccc(Nc2nccc(-c3ccc4[nH]cnc4c3)n2)cc1Cl [Compound 98, 4-(1H-benzo[d]imidazol-5-yl)-N-(3,4-dichlorophenyl)pyrimidin-2-amine] | 200 to 1000 | 200 to 1000 | –
16 | FC(F)(F)c1cccc(Nc2nccc(-c3ccc4cn[nH]c4c3)n2)c1 [Compound 164, 4-(1H-indazol-6-yl)-N-(3-(trifluoromethyl)phenyl)pyrimidin-2-amine] | 1000 to 10000 | 1000 to 10000 | –
17 | Cc1ccc(C)n1-c1cccc(Nc2nccc(-c3ccc4[nH]cnc4c3)n2)c1 [Compound 4, 4-(1H-benzo[d]imidazol-5-yl)-N-(3-(2,5-dimethyl-1H-pyrrol-1-yl)phenyl)pyrimidin-2-amine] | 1000 to 10000 | 1000 to 10000 | –
18 | Cc1c(-c2ccnc(Nc3cccc(C(F)(F)F)c3)n2)ccc2[nH]cnc12 [Compound 125, 4-(4-methyl-1H-benzo[d]imidazol-5-yl)-N-(3-(trifluoromethyl)phenyl)pyrimidin-2-amine] | 1000 to 10000 | 1000 to 10000 | –
19 | Cn1cc(Nc2nccc(-c3ccc4[nH]cnc4c3)n2)cn1 [Compound 77, 4-(1H-benzo[d]imidazol-5-yl)-N-(1-methyl-1H-pyrazol-4-yl)pyrimidin-2-amine] | 200 to 1000 | 200 to 1000 | –
20 | CN(c1ccccc1)c1nccc(-c2cccc(O)n2)n1 [Compound 225, 6-(2-(methyl(phenyl)amino)pyrimidin-4-yl)pyridin-2-ol] | 10000 to 100000 | 10000 to 100000 | –
21 | COc1cc(-c2ccnc(Nc3cc(F)cc(F)c3)n2)ccn1 [Compound 148, N-(3,5-difluorophenyl)-4-(2-methoxypyridin-4-yl)pyrimidin-2-amine] | 1000 to 10000 | 1000 to 10000 | –
22 | COc1cc(-c2ccnc(Nc3cncc(C(F)(F)F)c3)n2)ccn1 [Compound 155, 4-(2-methoxypyridin-4-yl)-N-(5-(trifluoromethyl)pyridin-3-yl)pyrimidin-2-amine] | 10000 to 100000 | 10000 to 100000 | –
23 | CC(C)n1cc(Nc2nccc(-c3ccc4[nH]cnc4c3)n2)cn1 [Compound 21, 4-(1H-benzo[d]imidazol-5-yl)-N-(1-isopropyl-1H-pyrazol-4-yl)pyrimidin-2-amine] | 200 to 1000 | 200 to 1000 | –
